The record followed here is patent US20090264415A2 (priority 2004, published 2009).

In experiment [1] the test system is production of human TNF-α by PBMC in response to LPS. The experiment can be described thus: TNF-α assay (LPS-stimulated PBMC, sandwich ELISA). The following applies: Homo sapiens, PBMC; LPS 1 μg/ml, 72 hours; read-out: TNF α. The experiment is classed as cell-based. On the procedure:
Peripheral blood mononuclear cells (herein referred as PBMC), in response to stimulation by lipopolysaccharide (hereinafter LPS), a gram-negative bacterial endotoxin, produce various […], in particular human TNF-α. Inhibition of the activation of PBMC can therefore be measured by the level of suppression of the production of TNF-α by PBMC in response to stimulation by LPS. Inhibition measurement was performed as follows: PBMC were isolated from heparinized peripheral blood by density gradient centrifugation over Lymphoprep (commercially available from Nycomed, Norway). LPS was then added to the PMBC suspension in complete medium (10^6 cells/ml) at a final concentration of 1 μg/ml. The pteridine derivative to be tested was added at different concentrations (0.1 μM, 1 μM and 10 μM) and the cells were incubated at 37° C. for 72 hours in 5% CO2. The supernatants were collected, then TNF-α concentrations were measured with respectively an anti-TNF-α antibody in a sandwich ELISA (Duo Set ELISA human TNFα, commercially available from R&D Systems, United Kingdom). The colorimetric reading of the ELISA was measured by a Multiskan RC plate reader (commercially available from ThermoLabsystems, Finland) at 450 nm (reference wavelength: 690 nm). Data analysis was performed with Ascent software 2.6. (also from ThermoLabsystems, Finland): a standard curve (recombinant human TNFα) was drawn and the amount (pg/ml) of each sample on the standard curve was determined. The % suppression of human TNFα production by the pyrido[3,2-d]pyrimidine derivatives of the invention was calculated using the formula: [formula]
In general terms: In an ELISA, binding on a coated surface is turned into a signal by an enzyme label.

In experiment [2] the test system is peripheral blood mononuclear cells (PBMC) stimulated with allogeneic PBMC or EBV-transformed human B cells (RPMI1788). Description: Mixed lymphocyte reaction (MLR) assay. The experiment is classed as cell-based. The following applies: Homo sapiens, RPMI-1788; 50% suppression of the MLR, [3H]-thymidine incorporation; read-out: MLR. In short, it runs like this:
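Compounds, held as 10 mM DMSO stocks and diluted in culture medium, were added to PBMC stimulated by 30 Gy-irradiated allogeneic PBMC or RPMI1788 cells. Proliferation was read as [3H]-thymidine uptake (1 μCi, final 16 h) after 5 days at 37° C. Inhibition was derived from cpm.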
For orientation: Dividing cells build labelled thymidine or BrdU into new DNA.

SMILES strings stand for the structures. pIC50: −log10 of the molar value.

Regarding `COc1ccc(-c2ccc3nc(N)nc(N4CCCN(C(=O)Nc5cccc(C)c5)CC4)c3n2)cc1OC` [Example 250, 2-amino-4-[(N-3-methylphenylcarbamoyl)-homopiperazin-1-yl]-6-(3,4-dimethoxyphenyl)-pyrido[3,2-d]pyrimidine], the pIC50 in experiment [1] is 6.22; in experiment [2] it was 8.07.

As for `COc1ccc(-c2ccc3nc(N)nc(NC4CCN(C(=O)OC(C)(C)C)CC4)c3n2)cc1OC` [Example 255, 2-amino-4-[(1-Boc-piperidin-4-yl)amino]-6-(3,4-dimethoxyphenyl)-pyrido[3,2-d]pyrimidine], the pIC50 in experiment [1] was 7.40; in experiment [2], 7.22.

Regarding `COc1ccc(-c2ccc3nc(N)nc(NC4CCCN(C(=O)OC(C)(C)C)C4)c3n2)cc1OC` (stereo not drawn) [Example 257, 2-amino-4-[(1-Boc-piperidin-3-yl)amino]-6-(3,4-dimethoxyphenyl)-pyrido[3,2-d]pyrimidine], the figures for the pIC50 in experiment [1] and in experiment [2] were 6.22 and 6.52, respectively.

As for `COc1ccc(-c2ccc3nc(N)nc(NC4CCCN(C(=O)OCc5ccccc5)C4)c3n2)cc1OC` (stereo not drawn) [Example 258, 2-amino-4-[(1-Cbz-piperidin-3-yl)amino]-6-(3,4-dimethoxyphenyl)-pyrido[3,2-d]pyrimidine], the pIC50 in experiment [1] is 6.52; in experiment [2], 6.05.

Turning to `COc1ccc(-c2ccc3nc(N)nc(NCCCNC(=O)Nc4cccc(C)c4)c3n2)cc1OC` [Example 262, 2-amino-4-[(3-methylphenylcarbamoyl)-3-aminopropane-amino-1-N-yl]-6-(3,4-dimethoxyphenyl)-pyrido[3,2-d]pyrimidine], the pIC50 in experiment [1] was 5.16; in experiment [2] it was 6.30.

For `COc1ccc(-c2ccc3nc(N)nc(NC4CCN(C(=O)Nc5cccc(C)c5)CC4)c3n2)cc1OC` [Example 263], the figures for the pIC50 in experiment [1] and in experiment [2] were 6.30 and 7.15, respectively.

For the molecule `COc1ccc(-c2ccc3nc(N)nc(NC4CCCN(C(=O)Nc5cccc(C)c5)C4)c3n2)cc1OC` (stereo not drawn) [Example 264, 2-amino-4-[(3-methylphenylcarbamoylpiperidin-3-yl)amino)-6-(3,4-dimethoxyphenyl]-pyrido[3,2-d]pyrimidine], the values for the pIC50 in experiment [1] and in experiment [2] were 5.74 and 6.30, respectively.

For the molecule `COc1ccc(-c2ccc3nc(N)nc(NCCNC(=O)COc4ccc(Cl)cc4)c3n2)cc1OC` [Example 265], the pIC50 in experiment [1] was 5.41; in experiment [2], 6.52.

Turning to `COc1ccc(-c2ccc3nc(N)nc(NCCCNC(=O)COc4ccc(Cl)cc4)c3n2)cc1OC` [Example 266, 2-amino-4-[3-N-(4-chlorophenoxy-acetyl)-3-amino-propane-amine-1-N-yl]-6-(3,4-dimethoxyphenyl)-pyrido[3,2-d]pyrimidine], the pIC50 in experiment [1] was 6.05; in experiment [2], 6.15.

On to `COc1ccc(-c2ccc3nc(N)nc(N4CC[C@@H](NC(=O)COc5ccc(Cl)cc5)C4)c3n2)cc1OC` [Example 267], for which the pIC50 in experiment [1] is 5.60; in experiment [2], 6.15.

In the case of `COc1ccc(-c2ccc3nc(N)nc(N4CCCC(C(=O)NCC(C)C)C4)c3n2)cc1OC` (stereo not drawn) [Example 268, 2-amino-4-[(3-carboxylic acid isobutylamide)-piperidin-1-yl]-6-(3,4-dimethoxyphenyl)-pyrido[3,2-d]pyrimidine], the pIC50 in experiment [1] was 6.15; in experiment [2], 6.30.

Consider `COc1ccc(-c2ccc3nc(N)nc(NCC(=O)N4CCN(Cc5ccccc5)CC4)c3n2)cc1OC` [Example 271, 2-amino-4-[2-(4-benzylpiperazin-1-yl)-2-oxo-ethane-amino]-6-(3,4-dimethoxyphenyl)-pyrido[3,2-d]pyrimidine], for which the pIC50 in experiment [1] is 6.30; in experiment [2], 6.15.
